Results reported in patent publication US20110150917A1, “Small Cationic Antimicrobial Peptides” (THE UNIVERSITY OF BRITISH COLUMBIA, priority 2007, published 2011).
“Also recorded” adds a separate entry of the source. Where no end group is shown, it is not given here.

Columns and labels:
[1] = system: human peripheral blood mononuclear cells (PBMC); experiment: Chemokine induction in human PBMC (capture ELISA); format: cell-based; conditions: for ability to stimulate human PBMC to induce the expression of the chemokines MCP-1, Gro-α and IL8: ELISA 24 hours after peptide addition, compared to LL-37, lowest peptide concentration 5 μg/ml
Method: (§1) Venous blood (20 ml) from healthy volunteers was collected in Vacutainer® collection tubes containing sodium heparin as an anticoagulant (Becton Dickinson, Mississauga, ON) in accordance with UBC ethical approval and guidelines. Blood was diluted 1:1 with complete RPMI 1640 medium and separated by centrifugation over a Ficoll-Paque® Plus (Amersham Biosciences, Piscataway, N.J., USA) density gradient. White blood cells were isolated from the buffy coat, washed twice in RPMI 1640 complete medium, and the number of peripheral blood mononuclear cells (PBMC) was determined by trypan blue exclusion. PBMC (5×10^5) were seeded into 12-well tissue culture dishes (Falcon; Becton Dickinson) at 0.75 to 1×10^6 cells/ml at 37° C. in 5% CO2. The above conditions were chosen to mimic conditions for circulating blood monocytes entering tissues at the site of infection via extravasation.
(§2) Following incubation of the cells under various treatment regimens, the tissue culture supernatants were centrifuged at 1000×g for 5 min, then at 10,000×g for 2 min to obtain cell-free samples. Supernatants were aliquoted and then stored at −20° C. prior to assay for various chemokines by capture ELISA (eBioscience and BioSource International Inc., CA, USA respectively).

macrophages = conditions: previously shown in applicant's laboratory; cited from earlier work
S. aureus = experiment: Protection of mice vs. Staphylococcus aureus challenge (peritoneal); format: in vivo
Method: FIG. 9. Protection of animals vs. Staphylococcus aureus challenge when administered 4 hours prior to initiating the infection. A represents the reduction in colony counts within the peritoneum of mice treated with lantibiotic peptide (or negative control 1005 or positive control 1002) and challenged with ˜10^8 S. aureus in hog gastric mucin. […] An additional peptide 1002 was included as a positive control.
Conventional peptides are known to protect against infection (Scott et al. Nature Biotech 2007). However such peptides are very expensive whereas lantibiotics are bacterial fermentation products and thus inexpensive. Thus we assessed the reduction in colony counts after 24 hours within the peritoneum of mice treated with the lantibiotic peptide nisin (or negative control 1005 or positive control 1002) and challenged these mice 4 hours later with ˜10^8 S. aureus in hog gastric mucin. […] Thus the in vitro activities of nisin in increasing MCP-1 production in PBMC is clearly related to in vivo protection in animal models.

human PBMC = experiment: Chemokine responses of human PBMC to CpG oligonucleotides with co-administered lantibiotic peptides; format: cell-based; conditions: for synergy with known adjuvants like CpG: FIG. 3, FIG. 8
Method: FIG. 3A-C. Reinforcement of chemokine responses in human PBMC to the bacterial signature molecules, Cpg oligonucleotides, by co-administration of lantibiotic peptides. On the X-axis of this and subsequent Figures, N=Nisin Z, P=Pep5, G=gallidermin.
as §1, §2

Citrobacter rodentium = Citrobacter rodentium challenge in mice (live imaging, intestinal histology); format: in vivo
Method: FIG. 10. Live-time Non-invasive imaging following Citrobacter rodentium challenge; effect of nisin treatment. Animals were pre-treated intraperitoneally with 200 μg nisin, 4 h prior to initiating the infection. Mice were then infected via gavage with 2.5×10^8 CFU of Citrobacter rodentium (lux—luminescence labeled). Live mice were followed with a CCD camera over time to assess bacterial clearance/resolution of infection.
FIG. 11. Histology of the intestines of Citrobacter treated animals after sacrifice at day 11; effect of nisin treatment. A. Sections of (from right to left): normal uninfected, saline treated infected, and nisin-treated intestines. Letter labels are a. Inflammatory infiltrate and edema; b. elongated crypts (hyperplasia); c. sloughing of damaged epithelial cells (mucosal integrity); d. depletion of mucous in goblet cells. B. Scoring of these micrographs.

monocytic cells = conditions: cited from earlier work
[2] = mouse model; cited from earlier work
bacterial infections = conditions: mouse, in vivo; cited from earlier work
[3] = intestines, sacrifice at day 11, p<0.05, FIG. 11

Nisin A: lantibiotic, a variant of Nisin Z (ITSISLCTPGCKTGALMGCNMKTATCHCSIHVSK; thioether (positions not given here); also: lantibiotic; UniProt P13068 24-57, looked up)
ability to induce MCP-1 ([1]; 24 hours, 100 μg of peptide, ELISA, FIG. 7): excellent activity

indolicidin: 13-mer peptide (ILPWKWPWWPWRR; ends and bridges not checked; UniProt P33046 131-143, looked up)
anti-endotoxic activity (suppression of LPS-stimulated TNFα by macrophages) (macrophages): rather modest anti-endotoxic activity

nisin
colony counts within the peritoneum (S. aureus; after 24 hours, peptide 4 hours before ~10^8 S. aureus in hog gastric mucin, FIG. 9A): reducing average colony counts | visual observation scores (physiological consequences) (S. aureus; cf. control peptides 1002 and 1005, FIG. 9B): vastly improved | synergy in inducing MCP-1 over and above the individual components (human PBMC; adjuvant formulations, ratios 2:1, 1:1 and 1:2 nisin to CpG, FIG. 8): demonstrated synergy | infection in the gut / bacterial clearance (Citrobacter rodentium; 200 μg nisin intraperitoneally 4 h before gavage with 2.5×10^8 CFU, CCD imaging, FIG. 10): substantial decrease in infection in the gut; also recorded: superior clearance | duration of the decrease in infection / superior clearance (Citrobacter rodentium; after injection of nisin, FIG. 10): up to 11 days | damage to epithelial integrity (histology score) (Citrobacter rodentium; [3]): decrease | goblet cell depletion (histology score) (Citrobacter rodentium; [3]): decrease | inflammatory exudate and edema (histology score) (Citrobacter rodentium; [3]): significant (p<0.05) increase

gallidermin: cationic lantibiotic purified from Staphylococcus gallinarum Tü 3928 (IASKFLCTPGCAKTGSFNSYCC; thioether (positions not given here); also: lantibiotic; UniProt P21838 31-52, looked up)
ability to stimulate human PBMC to induce the expression of the chemokines MCP-1, Gro-α and IL8 ([1]; FIG. 2A-C): quite effective; also recorded: ability to induce chemokines | synergy with known adjuvants like CpG (human PBMC): show synergy

LL-37: natural human host defence peptide (LLGDFFRKSKEKIGKEFKRIVQRIKDFLRNLVPRTES; Antibacterial peptide LL-37; UniProt P49913 134-170, looked up)
anti-endotoxic activity in vitro (suppression of LPS-mediated induction of TNFα) (monocytic cells): excellent anti-endotoxic activity | endotoxin mediated TNFα induction and lethality [2]: reduce endotoxin mediated TNFα induction and lethality | protection against bacterial infections (bacterial infections): able to protect against bacterial infections

Pep5: cationic lantibiotic purified from producer strain S. epidermidis 25 (TAGPAIRASVKQCQKTLKATRLFTVSCKGKNGCK; thioether (positions not given here); also: lantibiotic; UniProt P19578 27-60, looked up)
ability to stimulate human PBMC to induce the expression of the chemokines MCP-1, Gro-α and IL8 ([1]; FIG. 2A-C): ability to induce chemokines | synergy with known adjuvants like CpG (human PBMC): show synergy

Nisin Z: cationic lantibiotic bacteriocin purified from L. lactis NIZO 22186 fermentation broth (ITSISLCTPGCKTGALMGCNMKTATCNCSIHVSK; thioether (positions not given here); also: lantibiotic; UniProt P29559 24-57, looked up)
ability to stimulate human PBMC to induce the expression of the chemokines MCP-1, Gro-α and IL8 ([1]; FIG. 2A-C): most effective; also recorded: ability to induce chemokines | dose response of chemokine induction ([1]; between 30 and 150 μg/ml, FIG. 2A-C): good dose response | synergy with known adjuvants like CpG (human PBMC): show synergy | MCP-3 release above the additive effect of CpG alone and lantibiotic alone (human PBMC; p<0.05): statistically significantly (p<0.05) increased | inducing MCP-1 and IL6, compared with CpG (human PBMC; vs three classes of CpG): superior to any of the three classes of CpG
